These results are taken from patent publication US20090093446A1, “METHOD FOR ALLEVIATING KERATOCONJUNCTIVITIS SICCA” (priority 2007, published 2009).

Bounds are passed on as bounds.

What all share (assay type): in vivo, human
Assay [1] relates to patients with migraine headache. Put plainly: capsaicin cream applied to nasal mucosa in migraine headache. To be noted: 0.025% by weight capsaicin cream to nasal mucosa.
The subject of assay [2] is patients with migraine headache disorder. Description: intranasal capsaicin cream for acute migraine pain, two patients. The note with it: 0.025% by weight capsaicin cream intranasally, both of two migraine patients. How it is done: Two patients with migraine headache disorder were administered 0.025% by weight capsaicin cream intranasally for acute relief of their migraine pain. Both reported increased lacrimation within 30 minutes of application of the capsaicin cream.

The test system of a further assay is normal volunteers. Put plainly: multi-dose 14 day tolerance study of civamide nasal spray. To be noted: 14 days, 10 normal volunteers.
The test system of assay [3] is patients with vasomotor rhinitis (non-allergic rhinitis). Description: double-blind placebo-controlled 2 week evaluation of civamide nasal spray in vasomotor rhinitis. To be noted: 0.01% by weight civamide nasal spray, 2 weeks. The source says:
Fifty-five (55) patients with vasomotor rhinitis (non-allergic rhinitis) participated in a double-blind placebo-controlled 2 week evaluation of the symptomatic relief afforded patients by 0.01% by weight civamide nasal spray or placebo nasal spray (vehicle for active product). Thirty-one percent (31%) of patients using 0.01% civamide spray reported increased tearing, while 0% of patients on placebo noted such a side effect.

In assay [4] the test system is patients with episodic cluster headache. Put plainly: civamide nasal drops in episodic cluster headache. To be noted: 0.025% by weight civamide nasal drops once daily for 1 week, 9 of 18 patients. The source says:
In a study utilizing 0.025% by weight civamide nasal drops administered once daily for 1 week to 28 patients with episodic cluster headache (a severe form of vasomotor headache that occurs in general 4-24 week clusters), 9 of 18 patients (50%) on civamide nasal drops had increased tearing versus 0 of 10 patients (0%) on vehicle control.

Assay [5] concerns episodic cluster headache patients. Description: civamide nasal spray versus inactive control in episodic cluster headache. To be noted: 0.01% by weight civamide nasal spray twice daily, 36 patients.

`COc1cc(CNC(=O)CCCC/C=C/C(C)C)ccc1O` [capsaicin]: the “patients who reported increased tearing as a side effect” value in assay [1] is 44%. In addition, in assay [1] (4 hours after administration), the “patients who noted some relief of their headaches” value is reported as 73%. Moreover, in assay [2], the “time to reported increased lacrimation after application” value was at most 30 min.
`COc1cc(CNC(=O)CCCC/C=C\C(C)C)ccc1O` [civamide, cis-8-methyl-N-vanillyle-nonenamide]: the “subjects who experienced increased lacrimation (tear production)” value in the assay with normal volunteers (0.0075% by weight civamide nasal spray twice daily) and in the assay with normal volunteers (0.01% by weight civamide nasal spray twice daily) was 100% throughout. In addition, the “subjects who experienced increased tearing” value in the assay with normal volunteers ([…] by weight civamide nasal spray once daily) came to 90%. Also, the entries for the “patients who reported increased tearing” value in assay [3] and in assay [5] were 31% and 51%, respectively. Besides, the “patients who had increased tearing” value in assay [4] was 50%.
